Measured values published in PubChem BioAssay (NCI).
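In this assay, cells in 96-well plates receive the compound at five concentrations for 48 hours. Endpoints are linearly interpolated between the surrounding concentrations. TGI is the concentration that stops growth completely.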

Assays:
Experiment in all cases: NCI-60 cell line screen, 48 h
[1] = system: M14 melanoma
[2] = system: A549 NSCLC
[3] = system: MDA-N
[4] = system: SK-MEL-28 melanoma
[5] = system: HCC-2998 colon
[6] = system: SF-539 CNS
[7] = system: SN12C renal
[8] = system: MALME-3M melanoma
[9] = system: HOP-62 NSCLC
[10] = system: MOLT-4 leukemia
[11] = system: LOX IMVI melanoma
[12] = system: PC-3 prostate
[13] = system: SF-268 CNS
[14] = system: SW-620 colon
[15] = system: MDA-MB-435
[16] = system: SK-MEL-2 melanoma
[17] = system: COLO 205 colon
[18] = system: K-562 leukemia
[19] = system: HCT-116 colon
[20] = system: UACC-62 melanoma

| Compound | TGI [1] [µM] | TGI [2] [µM] | TGI [3] [µM] | TGI [4] [µM] | TGI [5] [µM] | TGI [6] [µM] | TGI [7] [µM] | TGI [8] [µM] | TGI [9] [µM] | TGI [10] [µM] | TGI [11] [µM] | TGI [12] [µM] | TGI [13] [µM] | TGI [14] [µM] | TGI [15] [µM] | TGI [16] [µM] | TGI [17] [µM] | TGI [18] [µM] | TGI [19] [µM] | TGI [20] [µM] |
| --- | --- | --- | --- | --- | --- | --- | --- | --- | --- | --- | --- | --- | --- | --- | --- | --- | --- | --- | --- | --- |
| Cc1cccc(C(=O)O)c1CC1NCCC2c3ccccc3NC12 (stereo not drawn) | > 100 | > 100 | > 100 | > 100 | > 100 | > 100 | > 100 | > 100 | > 100 | > 100 | > 100 | > 100 | > 100 | > 100 | > 100 | > 100 | > 100 | > 100 | > 100 | > 100 |
| C/C(=C1\C(=O)C(c2ccccc2)N(c2ccccc2)C1=O)c1ccc(Cl)cc1 (stereo not drawn) | 42.3 | 36.5 | 48 | 31.2 | 96.1 | 48.9 | 86 | 37.4 | 84.5 | > 100 | 28.5 | 28.2 | 47 | 72.3 | 32.8 | 45.4 | 32.8 | > 100 | 36.3 | 30.8 |
| CC[C@H]1C=CCC[C@@]2(C[C@@H]3CC[C@@H]4[C@H](C(=O)OCCCCCCCCCCCCCCCC(=O)N(CCCNC(C)=O)C[C@H](CCNC(C)=O)OC(C)=O)[C@]5(CCC[C@@H](C)O5)NC(=[N+]34)N2)O1 | 0.34 | 1.36 | 1.36 | 2.52 | 0.221 | 1.59 | 2.1 | 0.568 | 1.84 | 1.66 | 0.0709 | 1.18 | 1.14 | 2.14 | 0.545 | 0.338 | 0.955 | 3.81 | 1.24 | 0.246 |
| CCN(CC)CCNC(=O)c1nn(-c2ccc(Cl)cc2)c2c1CCc1cc(OC)ccc1-2 | 5.86 | 21.3 | 10.2 | 4.23 | 5.52 | 13.4 | 24.2 | 2.95 | 29.2 | 28.5 | 4.11 | 26.3 | 22.2 | 7.59 | 23.6 | 3.18 | 6.42 | 11.1 | 13.3 | 7.58 |
| NC(=O)C1CCCN1C(=O)N(CCCl)N=O (stereo not drawn) | > 100 | > 100 | > 100 | > 100 | > 100 | > 100 | > 100 | > 100 | > 100 | > 100 | > 100 | > 100 | > 100 | > 100 | > 100 | > 100 | > 100 | > 100 | > 100 | > 100 |
| CC(=O)c1ccccc1NS(=O)(=O)c1ccc2nc(C)n(NS(=O)(=O)c3ccccc3C(C)=O)c(=O)c2c1 | > 100 | – | > 100 | > 100 | > 100 | > 100 | > 100 | > 100 | > 100 | > 100 | > 100 | > 100 | > 100 | > 100 | > 100 | > 100 | > 100 | > 100 | > 100 | > 100 |
| O[C@H]1[C@H](O)[C@@H](Cn2nnc(-c3ccccc3)c2-c2ccccc2)OCO[C@@H]1Cn1nnc(-c2ccccc2)c1-c1ccccc1 | 11.7 | 13.5 | 9.97 | > 67.1 | 6.31 | 10.8 | 7.55 | 29.6 | 29 | > 30.4 | 5.85 | 8.83 | 25 | 46.6 | 22.8 | 9.41 | 12.2 | > 100 | 9.63 | 11.7 |
| CNc1nc2c(C)ccc3[nH]c(N(C)C)nc3c-2n1 | 51.1 | > 100 | > 100 | > 100 | > 100 | 64.5 | > 100 | 95.6 | > 100 | > 100 | > 100 | > 100 | > 100 | > 100 | > 100 | > 100 | > 100 | 45 | > 100 | > 100 |
| Cc1ccc(C)c(COCCOCn2c(=O)[nH]c(=O)c3cc(Br)ccc32)c1 | > 100 | > 100 | > 100 | > 100 | > 100 | > 100 | > 100 | > 100 | > 100 | > 100 | > 100 | > 100 | > 100 | > 100 | > 100 | > 100 | > 100 | > 100 | > 100 | > 100 |
| COc1ccccc1/C=C/c1nc2ccccc2o1 | > 10 | > 10 | > 10 | > 10 | > 10 | > 10 | > 10 | > 10 | > 10 | > 10 | > 10 | > 10 | > 10 | > 10 | > 10 | > 10 | > 10 | > 10 | > 10 | > 10 |
| COc1ccc(-c2cc(-c3ccccc3)nc3c2CC(=O)Nc2ccccc2-3)cc1OC | > 100 | > 36.3 | > 100 | > 100 | > 100 | > 46.1 | > 100 | > 70.3 | 18.2 | > 100 | > 100 | > 100 | > 100 | > 100 | > 100 | > 100 | > 100 | > 100 | – | > 100 |
| COc1cc(Nc2nc3ccccc3nc2C(C)C)cc(OC)c1OC | > 100 | > 100 | > 100 | > 100 | > 100 | > 100 | > 100 | > 100 | > 100 | > 100 | > 100 | > 100 | > 100 | > 100 | > 100 | > 100 | > 100 | > 100 | > 100 | > 100 |
| CCOC(=O)N1N(c2ccccc2)C(=O)C1(c1ccccc1)c1ccccc1 | > 100 | > 100 | > 100 | > 100 | > 100 | > 100 | > 100 | > 100 | 46 | > 100 | > 100 | > 100 | > 100 | > 100 | > 100 | 70.5 | > 100 | > 100 | > 100 | > 100 |
| Cc1[nH]c(=O)nc(N(CCO)/N=C/c2ccc(Cl)cc2)c1C(=O)Nc1ccc(Cl)cc1 | > 100 | > 100 | > 100 | > 100 | > 100 | > 100 | > 100 | 68.3 | > 100 | > 100 | > 100 | > 100 | > 100 | > 100 | > 100 | > 100 | > 100 | > 100 | > 100 | > 100 |
| Cc1cc(C)c2c(=O)cc(-c3ccc4ccccc4c3)[nH]c2n1 | 67.5 | > 100 | 17.2 | > 100 | > 81.8 | > 93.4 | > 100 | > 100 | > 93.8 | 12.9 | > 74.9 | > 100 | > 100 | > 100 | 12 | > 100 | 48.1 | 4.26 | > 69.9 | > 100 |
| O=S(=O)(/N=C(\NO)Nc1ccc(Cl)cc1)C1CC=C(c2ccon2)S1 (stereo not drawn) | > 100 | > 100 | > 100 | > 100 | 50.4 | 16.9 | 98.9 | 43.2 | > 100 | > 51.3 | > 100 | > 100 | > 84.4 | > 100 | > 100 | 55.1 | 35 | > 100 | > 100 | > 100 |
| NC(N)=NS(=O)(=O)c1ccc(NC(=O)c2ccc3nc4ccccc4c(N)c3c2)cc1 | > 100 | > 100 | > 100 | > 100 | > 100 | > 100 | > 100 | > 100 | > 100 | > 100 | > 100 | > 100 | > 100 | > 100 | > 100 | > 100 | > 100 | > 100 | > 100 | > 100 |
| COC(=O)c1ccc(C)cc1CC1Cc2c(C)cccc2C1=O (stereo not drawn) | > 54.1 | > 60.5 | 4.82 | 84.7 | 25.2 | 22.3 | 28.2 | 45.1 | > 53.4 | > 47.2 | 32.2 | > 34.6 | 44.7 | > 48.7 | 4.38 | 17.5 | 17 | > 34.4 | 15.4 | 22 |
| Nc1c2c(nc3ccccc13)CCCc1ccccc1-2 | 21.6 | 49 | 17.2 | 25 | 4.61 | 25.9 | 39.5 | 33.5 | 28 | > 100 | 22.1 | 40.5 | 38.4 | 26.6 | 24.7 | 27.1 | 24.4 | > 100 | 19.1 | 20.8 |
| Oc1ccccc1-c1nn2c(CCCCCCCCc3nnc4sc(-c5ccccc5O)nn34)nnc2s1 | > 77.7 | > 78 | > 100 | > 100 | > 100 | > 66.6 | > 100 | > 100 | > 92.2 | 51.1 | > 64.1 | > 100 | > 100 | > 100 | > 100 | > 67.5 | > 100 | > 100 | > 71.2 | > 100 |
| COCn1c(C)c(C)c2c(=O)oc(C)nc21 | > 100 | > 100 | > 100 | > 100 | > 100 | > 100 | > 100 | > 100 | > 100 | > 100 | > 100 | > 100 | > 100 | > 100 | > 100 | > 100 | > 100 | > 100 | > 100 | > 100 |
| COc1ccc(N(C(=O)NCCO)c2ccccc2)cc1 | > 100 | > 100 | > 100 | > 100 | > 100 | > 100 | > 100 | > 100 | > 100 | > 100 | > 100 | > 100 | > 100 | > 100 | > 100 | > 100 | > 100 | > 100 | > 100 | > 100 |
| NC(=S)N/N=C1\CCCCC1C(O)(C(F)(F)Cl)C(F)(F)Cl (stereo not drawn) | > 10 | > 10 | > 10 | > 10 | > 10 | > 10 | > 10 | > 10 | > 10 | > 10 | > 10 | > 10 | > 10 | > 10 | > 10 | > 10 | > 10 | > 10 | > 10 | > 10 |
